Reference: patent publication US7214697B2, “2-Oxo-benzimidazolyl substituted ethanolamine derivatives and their use as β3 agonists” (Eli Lilly and Company, priority 2002, dated 2007)

Tests used:
[1] = test system: rat atria; test: In Vitro Rat Atrial Tachycardia; conditions: isolated rat atria, cumulative addition until no further increase in atrial rate or 10^-4; average of at least 3 runs
Experimental: Male rats (250–350 g) (Harlan Sprague Dawley, Indianapolis, Ind., USA) are killed by cervical dislocation. Hearts are removed and the left and right atria are dissected and mounted with thread in tissue baths containing 10 mls of modified Krebs' solution. Initial resting tension is 1.5–2.0 g at the outset of the experiment (Naunyn-Schmied Arch. Pharmacol., 320:145, 1982). Tissues are allowed to equilibrate approximately 30 minutes with vigorous oxygenation before exposure to a compound of the invention.
To evaluate the ability of test compounds to increase heart rate, representative compounds of the present invention are added cumulatively once the atrial rate reached a steady state from the previous addition. Compound addition is continued until no further increase in atrial rate occurred or until a concentration of 10^−4 is reached. The increase in beats per minute (bpm) is measured for each concentration of test compound by means of a BioPac System (Br. J. of Pharmacol., 126:1018–1024, 1999).
The “% increase” values represent the average of at least 3 runs.

[2] = biological target: T1, human β3 adrenergic receptor (Homo sapiens, UniProt P13945); test: whole cell receptor coupled c-AMP assay (Emax relative to isoproterenol); type: cell-based; conditions: transfected CHO cells, c-AMP SPA; compound's maximal response divided by isoproterenol maximal response times 100; average of at least 3 runs; SEM in brackets; read-out: Emax (SEM), % intrinsic activity relative to isoproterenol
T1 construct: expressed in transfected cells; host or cells: DXB-11 Chinese hamster ovary (CHO) cell line, stably transfected (phd expression vector)
T1 sequence (P13945 whole entry): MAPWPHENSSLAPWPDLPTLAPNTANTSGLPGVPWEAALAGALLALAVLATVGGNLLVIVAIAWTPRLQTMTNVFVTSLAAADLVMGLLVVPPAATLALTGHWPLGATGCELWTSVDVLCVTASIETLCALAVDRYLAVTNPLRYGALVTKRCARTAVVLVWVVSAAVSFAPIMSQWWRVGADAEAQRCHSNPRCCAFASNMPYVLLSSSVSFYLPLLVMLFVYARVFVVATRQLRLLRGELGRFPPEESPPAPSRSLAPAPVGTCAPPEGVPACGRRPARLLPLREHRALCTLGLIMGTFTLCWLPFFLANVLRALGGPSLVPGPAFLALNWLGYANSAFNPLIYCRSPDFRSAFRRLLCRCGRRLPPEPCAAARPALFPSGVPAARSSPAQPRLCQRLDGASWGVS
Source text: The Emax values represent the average of at least 3 runs except as otherwise indicated.
The genes encoding the human β1-adrenergic receptor (Frielle et al., Proc. Natl. Acad. Sci., 84:7920–7924, 1987), the human β2-adrenergic receptor (Kobika et al., Proc. Natl. Acad. Sci., 84:46–50, 1987, Emorine et al., Proc. Natl. Acad. Sci., 84:6995–6999, 1987) and the human β3 adrenergic receptor (GraTineman et al., Molecular Pharmacology, 44(2):264–70, 1993) are individually subcloned into a phd expression vector (Grinnell el al., Bio/Technology, 5:1189–1192, 1987) and transfected into the DXB-11 Chinese hamster ovary (CHO) cell line by calcium phosphate precipitation methodology. The stably transfected cells are grown to 95% confluency in 95% Dulbecco's modified Eagles Medium (DMEM), 5% fetal bovine serum and 0.01% proline. Media is removed and the cells are washed with phosphate buffered (pH 7.4) saline (without magnesium and calcium). Cells are then lifted using an enzyme free cell dissociation solution (Specialty Media, Lavallette, N.J.) and pelleted by centrifugation.
Cells from each of the above cell lines are resuspended and added (20,000/well) to a 96-well plate. Cells are incubated at 37° C. with representative compounds of the invention for 20 minutes in buffer (Hank's balanced salt solution, 10 mM HEPES, 0.1% BSA, 1 mM L-ascorbic acid, 0.2% dimethyl sulfoxide, 1 mM 3-isobutyl-1-methylxanthine, pH 7.4). After halting the incubation with quench buffer (50 mM Na Acetate, 0.25% Triton X-100, pH 5.8), the c-AMP level is quantified by scintillation proximity assay (SPA) using a modification of the commercially available c-AMP kit (Amersham, Arlington Heights, Ill.) with rabbit anti-cAMP antibody (ICN Bioniedicals, Aurora, Ohio) for the kit.
Sigmoidal dose response curves, from the whole cell receptor coupled c-AMP assay are fit to a four parameter logistic equation using non linear regression: y=(a-d)/(1+(Dose/c)^b)+d where a and d are responses at zero and maximal dose, b is the slope factor and c is the EC50 as previously described (DeLean et al., Am. J. Physiol., 235, E97–E102, 1978). EC50 is assessed as the concentration producing 50% of the maximum response to each agonist.
Isoproterenol is accepted in the art as a non-selective β3 agonist and is widely used as a comparator in evaluating the activity of compounds. See Trends in Pharm. Sci., 15:3, 1994. The % intrinsic activity (Emax) of representative compounds of the invention is assessed relative to isoproterenol by the compound's maximal response divided by the isoproterenol maximal response times 100.

Emax [2] | SMILES | % Increase in Heart Rate [1] | also measured
 | CC(C)(Cc1ccc(Cc2ccc(C(N)=O)cn2)cc1)NC[C@H](O)COc1cccc2[nH]c(=O)n(CC3CCC3)c12 [Cyclobutylmethyl] | 6.5 ± 2.2% | 
 | CC(C)(Cc1ccc(Cc2ccc(C(N)=O)cn2)cc1)NC[C@H](O)COc1cccc2[nH]c(=O)n(CC3CCCC3)c12 [Cyclopentylmethyl] | 9.9 ± 0.3% | 
 | CC(C)(Cc1ccc(Cc2ccc(C(N)=O)cn2)cc1)NC[C@H](O)COc1cccc2[nH]c(=O)n(CC3CC3)c12 [Cyclopropylmethyl] | 8.9 ± 1.2% | 
 | CCn1c(=O)[nH]c2cccc(OC[C@@H](O)CNC(C)(C)Cc3ccc(Cc4ccc(C(N)=O)cn4)cc3)c21 [Ethyl, reference compound] | 19.9 ± 0.4% | 
65.5% | CC(C)(C)Cn1c(=O)[nH]c2cccc(OC[C@@H](O)CNC(C)(C)Cc3ccc(Oc4ccc(C(N)=O)cn4)cc3)c21 [Example 12] |  | 
66.4% | CC(C)(C)Cn1c(=O)[nH]c2cccc(OC[C@@H](O)CNC(C)(C)Cc3ccc(Oc4ncccc4C(N)=O)cc3)c21 [Example 13] |  | 
67.9% | CC(C)(Cc1ccc(Oc2ccc(C(N)=O)cn2)cc1)NC[C@H](O)COc1cccc2[nH]c(=O)n(CC3CC3)c12 [Example 14] |  | 
80.1% | CC(C)(Cc1ccc(Oc2ncccc2C(N)=O)cc1)NC[C@H](O)COc1cccc2[nH]c(=O)n(CC3CC3)c12 [Example 15] |  | 
76% | CC(C)(Cc1ccc(Oc2ccc(C(N)=O)cc2Cl)cc1)NC[C@H](O)COc1cccc2[nH]c(=O)n(CC3CC3)c12 [Example 16] |  | 
58.2% | CC(C)(Cc1ccc(Oc2ccc(C(N)=O)cn2)cc1)NC[C@H](O)COc1cccc2[nH]c(=O)n(CC3CCC3)c12 [Example 17] |  | 
59.8% | CC(C)(Cc1ccc(Oc2ncccc2C(N)=O)cc1)NC[C@H](O)COc1cccc2[nH]c(=O)n(CC3CCC3)c12 [Example 18] |  | 
63.7% | CC(C)(Cc1ccc(Oc2ccc(C(N)=O)cn2)cc1)NC[C@H](O)COc1cccc2[nH]c(=O)n(CC3CCCC3)c12 [Example 19] |  | 
66.8% | CC(C)(Cc1ccc(Oc2ncccc2C(N)=O)cc1)NC[C@H](O)COc1cccc2[nH]c(=O)n(CC3CCCC3)c12 [Example 20] |  | 
 | CC(C)(Cc1ccc(Oc2ccc(C(N)=O)cc2Cl)cc1)NC[C@H](O)COc1cccc2[nH]c(=O)n(CC3CCCC3)c12.Cl [Example 21] |  | melting point: 159 to 164 °C (dec.)
 | CC(C)(Cc1ccc(Cc2ccc(C(N)=O)cn2)cc1)NC[C@H](O)COc1cccc2[nH]c(=O)[nH]c12 [Hydrogen, reference compound] | 17.7 ± 3.7% | 
 | Cn1c(=O)[nH]c2cccc(OC[C@@H](O)CNC(C)(C)Cc3ccc(Cc4ccc(C(N)=O)cn4)cc3)c21 [Methyl, reference compound] | 20.8 ± 1.8% | 
